According to patent publication US6673368B2, “Colonic motor dysfunction remedies comprising aminothiazole derivatives as active ingredients” (Zeria Phamaceutical Co., Ltd., priority 2000, dated 2004):

Legend:
[1] = test system: gastric antrum of male dogs; test: Effects on gastric motor activity (force transducers, conscious dogs, postcibal period); type: in vivo; conditions: dog, until 1 hour after administration, 30 minutes before administration = 100%
Excerpt: (§1) Test 1 [Effects on Gastric and Colonic Motor Activity]
(§2) Force transducers (“F-12IS”, trade name; manufactured by Star Medical Technologies, Inc.) were chronically sutured in the gastric antrum and large intestines of male dogs (body weight: 9 to 11 kg, 5 to 6 dogs per group) (Itoh, Z. et al., Am. J. Dig. Dis. 22, 117-124, 1977). Contraction signals from the respective regions in postcibal period were amplified and recorded (“RTA-1200”, trade name; manufactured by Nihon Kohden Corporation). The contraction signals, which had been collected in a computer, were analyzed by using an analysis program (“DSSDDWHD V.30”, trade name; prepared by Nihon Kohden Corporation), whereby motor indexes were calculated. The test drugs were administered through catheters which had been chronically indwelled beforehand in the duodenum, respectively. Supposing that the coefficient of motor 30 minutes before the administration of drug was 100%, the results were calculated as percents of motor index until 1 hour after the administration.

[2] = test system: large intestines of male dogs; test: Effects on colonic motor activity (force transducers, conscious dogs, postcibal period); type: in vivo; conditions: dog; for Percent of motor index, large intestine: until 1 hour after administration, 30 minutes before administration = 100%; for Effect on colonic motility (in words): intraduodenal, doses of Table 1
Excerpt: as §1, §2

male SD rats = test: Effects on defecation in rats; type: in vivo, rat; conditions: 10 mg/kg intraperitoneal, dry stool weight until 60 minutes after administration, control average = 100%
Experimental: Test 2 [Effects on Defecation]
Test drugs were intraperitoneally administered to male SD rats (8 rats per group). Stools were recovered until 60 minutes after the administration, and their dry weights were measured. Supposing that that the average of stool weights in a control group was 100%, the averages of percent weights of individual test drug groups were calculated.

SMILES | Percent of motor index, gastric antrum ([1]; 1 mg/kg intraduodenal) | Percent of motor index, large intestine ([2]; 1 mg/kg intraduodenal) | Effect on colonic motility (in words) [2] | Percent stool weight (male SD rats) | Percent of motor index, gastric antrum ([1]; 10 mg/kg intraduodenal) | Percent of motor index, large intestine ([2]; 10 mg/kg intraduodenal) | Percent of motor index, gastric antrum ([1]; 3 mg/kg intraduodenal) | Percent of motor index, large intestine ([2]; 3 mg/kg intraduodenal)
COc1cc(N)c(Cl)cc1C(=O)NC1CCN(CCCOc2ccc(F)cc2)CC1OC (stereo not drawn) [Cisapride, cisapride] | 158.7% | 114.5% | no significant effect |  |  |  |  | 
COc1cc(O)c(C(=O)Nc2nc(C(=O)NCCN(C(C)C)C(C)C)cs2)cc1OC.Cl.O.O.O [Compound 1, N-(N′,N′-diisopropylaminoethyl)-[2-(2-hydroxy-4,5-dimethoxybenzoylamino)-1,3-thiazol-4-yl]carboxamide HCL trihydrate] |  |  |  | 361.8% | 163.7% | 136.1% |  | 
CC(C)N(CCNC(=O)c1csc(NC(=O)c2cccc(C#N)c2)n1)C(C)C.Cl [Compound 2, N-(N′,N′-diisopropylaminoethyl)-[2-(3-cyanobenzoyl-amino)-1,3-thiazol-4-yl]carboxamide hydrochloride] |  |  |  | 766.7% | 189.5% | 221.7% |  | 
CC(C)N(CCNC(=O)c1csc(NC(=O)c2cccc(N)c2)n1)C(C)C [Compound 3, N-(N′,N′-diisopropylaminoethyl)-[2-(3-aminobenzoyl-amino)-1,3-thiazol-4-yl]carboxamide] |  |  |  | 733.3% | 244.6% | 249.9% |  | 
COc1ccc(C(=O)NCc2ccc(OCCN(C)C)cc2)cc1OC [Itopride, itopride] |  |  | no significant effect |  | 132.7% | 122.1% |  | 
CCOc1cc(N)c(Cl)cc1C(=O)NCC1CN(Cc2ccc(F)cc2)CCO1 (stereo not drawn) [Mosapride, mosapride] |  |  | no significant effect |  |  |  | 146.2% | 119.2%
